The results in this text go back to the supplement of paper PMC11061612.

Holding throughout (assay): Bliss excess, mean over the matrix (fraction); higher = more synergy
The subject of one experiment is ES8 (Ewing's Sarcoma). In short, it runs like this:
(§1)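 Bliss excess equals the observed combination effect minus the expected value EA + EB − EA·EB, where EA and EB are the effects of each agent alone. Combination Emax is the second-highest inhibition within the matrix. Inhibition was scaled from CellTiter-Glo 2.0 luminescence, with 0 set by vehicle wells and 1 by blank wells, after 72 hours of two-drug dosing of cells plated in 1536-well plates.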

The subject of experiment [1] is K-562 (Chronic Myelogenous Leukemia). In short, it runs like this: as §1
Experiment [2] concerns DND-41 (T-Lymphoblastic Leukemia). In short, it runs like this: as §1
For experiment [3], the system named is MS751 (Cervical Carcinoma). In a few lines:
as §1

Experiment [4] has as its system P12-ICHIKAWA (T-Lymphoblastic Leukemia). In short, it runs like this:
as §1

In experiment [5] the test system is BFTC-905 (Bladder Carcinoma). In short, it runs like this:
as §1

In experiment [6] the test system is MOLT-16 (T-Lymphoblastic Leukemia). In short, it runs like this: as §1
Experiment [7] deals with SW1417 (Colorectal Carcinoma). In a few lines: as §1
The subject of the next experiment is LN-18 (Glioblastoma). In a few lines: as §1
The subject of experiment [8] is SU-DHL-8 (B-Cell Non-Hodgkin's Lymphoma). In short, it runs like this: as §1
For experiment [9], the system named is KARPAS-45 (T-Lymphoblastic Leukemia). In short, it runs like this:
as §1

The subject of experiment [10] is PANC-08-13 (Pancreatic Carcinoma). In short, it runs like this:
as §1

For experiment [11], the system named is HL-60 (Acute Myeloid Leukemia). In a few lines: as §1
The test system of experiment [12] is KCL-22 (Chronic Myelogenous Leukemia). In short, it runs like this:
as §1

Experiment [13] concerns GR-ST (B-Lymphoblastic Leukemia). In a few lines: as §1
Another experiment relates to WIL2-NS (Non-Cancerous). In short, it runs like this:
as §1

In experiment [14] the test system is SR (Other Blood Carcinomas). In short, it runs like this: as §1
The test system of experiment [15] is BL-41 (Burkitt's Lymphoma). In short, it runs like this:
as §1

The next experiment concerns NCI-H2818 (Mesothelioma). In short, it runs like this: as §1
The next experiment deals with ES1 (Ewing's Sarcoma). In a few lines: as §1

The structures appear in SMILES notation.

As for `COc1cc2ncnc(Nc3ccc(F)c(Cl)c3)c2cc1OCCCN1CCOCC1` [Gefitinib] + CC(C)n1c(=O)n(C)c2cnc3cc(F)c(-c4ccc(OCCCN5CCCCC5)nc4)cc3c21 [AZD1390] (first compound max 10 µM, 7x7, partner max 0.3 µM), the Bliss excess in the experiment on ES8 (Ewing's Sarcoma) was -0.0364; in [1] it was -0.0304; in experiment [2] it was -0.0309; in experiment [3] it was -0.0614; in experiment [4] it was -0.0152; in experiment [5], -0.0821. Besides, the Bliss excess in experiment [6] was -0.0401; in experiment [7], -0.0456; in the experiment on LN-18 (Glioblastoma) it was -0.033; in experiment [8] it was -0.0157; in experiment [9], -0.0543; in experiment [10], -0.0511. The Bliss excess is -0.0852 in [11]; -0.0573 in [12]; -0.0303 in experiment [13]; -0.0241 with WIL2-NS (Non-Cancerous); -0.0109 in [14]; 0.003 in experiment [15]. Besides, the Bliss excess in the experiment on NCI-H2818 (Mesothelioma) was -0.0707; in the experiment with ES1 (Ewing's Sarcoma), -0.0432.
On to `COc1nnc2ccc(N3CCC(c4ccc(OCCN5CCN(C)C(=O)[C@H]5C)cc4)CC3)nn12` [AZD5153] + Cc1c2c(nn1C)CSCc1cc(n(C)n1)CSc1cc(c3ccccc3c1)OCCCc1c(C(=O)O)n(C)c3c-2c(Cl)ccc13 [AZD5991] (first compound max 1 µM, 7x7, partner max 1 µM), for which the Bliss excess with ES8 (Ewing's Sarcoma) was 0.0357; in experiment [1], -0.0496; in experiment [2], 0.0181; in experiment [3], 0.0038; in experiment [4] it was 0.0813; in experiment [5], -0.0056. Besides, the Bliss excess is -0.0072 in experiment [6]; -0.0252 in experiment [7]; -0.0751 with LN-18 (Glioblastoma); -0.0131 in experiment [8]; 0.0139 in experiment [9]; 0.0228 in [10]. For the same compound, the Bliss excess in experiment [11] was -0.0038; in experiment [12], -0.0633; in experiment [13] it was -0.027; in the experiment with WIL2-NS (Non-Cancerous), -0.0255; in [14], -0.0275; in experiment [15], -0.025. Moreover, the Bliss excess was 0.0183 with NCI-H2818 (Mesothelioma) and -0.037 in the experiment with ES1 (Ewing's Sarcoma).
Take `CC1(C)CCC(CN2CCN(c3ccc(C(=O)NS(=O)(=O)c4ccc(NCC5CCOCC5)c([N+](=O)[O-])c4)c(Oc4cnc5[nH]ccc5c4)c3)CC2)=C(c2ccc(Cl)cc2)C1` [Venetoclax] + Cc1cc2ncnn2cc1Nc1ncc2c(n1)n(C1CCOCC1)c(=O)n2C [AZD7648] (first compound max 1 µM, 7x7, partner max 10 µM): the Bliss excess with ES8 (Ewing's Sarcoma) was -0.0817; in experiment [1], -0.0011; in experiment [2], -0.0221; in experiment [3], 0.003; in [4], 0.0424; in experiment [5], -0.0081. Also, the Bliss excess in experiment [6] is 0.0704; in experiment [7], -0.0705; with LN-18 (Glioblastoma), 0.045; in experiment [8], -0.0318; in experiment [9], 0.0482; in [10], -0.0576. Moreover, the Bliss excess in experiment [11] was 0.0582; in experiment [12], 0.0097; in experiment [13], -0.0513; in the experiment on WIL2-NS (Non-Cancerous), -0.0684; in [14], -0.0115; in [15] it was -0.0007. Also, the Bliss excess is -0.0529 in the experiment on NCI-H2818 (Mesothelioma) and 0.0149 with ES1 (Ewing's Sarcoma).
Turning to `CC1(C)CCC(CN2CCN(c3ccc(C(=O)NS(=O)(=O)c4ccc(NCC5CCOCC5)c([N+](=O)[O-])c4)c(Oc4cnc5[nH]ccc5c4)c3)CC2)=C(c2ccc(Cl)cc2)C1` [Venetoclax] + C[C@@H]1COCCN1C2=NC(=NC(=C2)C3(CC3)[S@](=N)(=O)C)C4=C5C=CNC5=NC=C4 [AZD6738] (first compound max 1 µM, 7x7, partner max 10 µM), the Bliss excess in the experiment with ES8 (Ewing's Sarcoma) is 0.004; in [1], -0.0039; in [2], 0.0191; in experiment [3], 0.0094; in [4] it was 0.0418; in experiment [5] it was -0.032. In addition, the Bliss excess in experiment [6] was -0.0319; in experiment [7], -0.0247; in the experiment on LN-18 (Glioblastoma), -0.0469; in [8], -0.0176; in experiment [9] it was 0.0449; in experiment [10], -0.0482. The Bliss excess in [11] is -0.0656; in experiment [12] it was -0.0088; in experiment [13] it was -0.2; in the experiment with WIL2-NS (Non-Cancerous), -0.0346; in experiment [14] it was -0.0139; in experiment [15] it was 0.0001. Moreover, the Bliss excess was -0.0458 with NCI-H2818 (Mesothelioma) and -0.0268 with ES1 (Ewing's Sarcoma).
For `CC(=O)c1c(C)c2cnc(Nc3ccc(N4CCNCC4)cn3)nc2n(C2CCCC2)c1=O` [Palbociclib] + Cc1c2c(nn1C)CSCc1cc(n(C)n1)CSc1cc(c3ccccc3c1)OCCCc1c(C(=O)O)n(C)c3c-2c(Cl)ccc13 [AZD5991] (first compound max 10 µM, 7x7, partner max 1 µM), the Bliss excess was 0.0838 with ES8 (Ewing's Sarcoma); -0.0141 in experiment [1]; 0.0043 in experiment [2]; -0.0294 in experiment [3]; -0.0467 in [4]; -0.0167 in [5]. Moreover, the Bliss excess in experiment [6] was -0.0427; in experiment [7], -0.0089; with LN-18 (Glioblastoma), -0.0153; in [8] it was -0.22; in [9] it was -0.0071; in experiment [10], -0.0427. Moreover, the Bliss excess in experiment [11] was -0.0214; in [12], 0.0403; in experiment [13], 0.0096; with WIL2-NS (Non-Cancerous), -0.0608; in experiment [14], 0.0286; in experiment [15], -0.0691. Also, the values for the Bliss excess with NCI-H2818 (Mesothelioma) and in the experiment with ES1 (Ewing's Sarcoma) were -0.0386 and -0.0169, respectively.
As for `CC1(C)CCC(CN2CCN(c3ccc(C(=O)NS(=O)(=O)c4ccc(NCC5CCOCC5)c([N+](=O)[O-])c4)c(Oc4cnc5[nH]ccc5c4)c3)CC2)=C(c2ccc(Cl)cc2)C1` [Venetoclax] + C[C@@H](Nc1cc(F)cc(F)c1)c1cc(C(=O)N(C)C)cc2c(=O)cc(N3CCOCC3)oc12 [AZD8186] (first compound max 1 µM, 7x7, partner max 3 µM), the Bliss excess in the experiment with ES8 (Ewing's Sarcoma) is -0.0777; in [1], 0.038; in experiment [2] it was 0.0053; in experiment [3], 0.006; in experiment [4], -0.0097; in experiment [5], -0.0516. Further, the Bliss excess was 0.0388 in experiment [6]; -0.0747 in [7]; -0.0273 in the experiment with LN-18 (Glioblastoma); -0.041 in [8]; 0.201 in [9]; -0.031 in experiment [10]. Also, the Bliss excess in [11] was 0.0249; in [12], 0.0129; in experiment [13], -0.0713; in the experiment on WIL2-NS (Non-Cancerous) it was -0.0168; in [14], -0.027; in [15] it was 0.0218. The Bliss excess with NCI-H2818 (Mesothelioma) is -0.0557; in the experiment with ES1 (Ewing's Sarcoma) it was -0.0374.
Take `Cn1cnc2c(F)c(Nc3ccc(Br)cc3Cl)c(C(=O)NOCCO)cc21` [Selumetinib] + CC(C)n1c(=O)n(C)c2cnc3cc(F)c(-c4ccc(OCCCN5CCCCC5)nc4)cc3c21 [AZD1390] (first compound max 10 µM, 7x7, partner max 0.3 µM): the Bliss excess with ES8 (Ewing's Sarcoma) is -0.0529; in experiment [1] it was -0.0345; in [2], -0.0022; in [3], -0.0171; in experiment [4] it was 0.0544; in experiment [5], -0.0074. The Bliss excess in experiment [6] was 0.0182; in experiment [7], -0.0094; in the experiment on LN-18 (Glioblastoma), -0.0148; in experiment [8], -0.0201; in experiment [9] it was -0.026; in [10], -0.0365. Moreover, the Bliss excess was -0.073 in [11]; 0.0847 in experiment [12]; -0.0084 in experiment [13]; -0.0251 in the experiment with WIL2-NS (Non-Cancerous); -0.0171 in experiment [14]; 0.0029 in experiment [15]. Besides, the figures for the Bliss excess in the experiment with NCI-H2818 (Mesothelioma) and in the experiment on ES1 (Ewing's Sarcoma) were -0.0237 and -0.0365, respectively.
